Key:
[1] = tested on: α-isomaltosylglucosaccharide-forming enzyme from Arthrobacter globiformis A19; assay: Action on saccharides (TLC before and after enzymatic reaction); type: biochemical; set-up: key: −: it showed no change; +: it showed a slight reduction of the color spot of the substrate and the formation of other reaction product; ++: it showed a high reduction of the color spot of the substrate and the formationof other reaction product; +++: it showed a substantial disappearance of the substrate spot and the formation of other reaction product; details: two units/g substrate, substrate 2% (w/v), 30° C., pH 8.4, 24 hours
Method: (§1) It was tested whether saccharides can be used as substrates for the polypeptide of α-isomaltosylglucosaccharide-forming enzyme of the present invention. For the purpose, a solution of maltose, maltotriose, maltotetraose, maltopentaose, maltohexaose, maltoheptaose, isomaltose, isomaltotriose, panose, isopanose, trehalose, kojibiose, nigerose, neotrehalose, cellobiose, gentibiose, maltitol, maltotriitol, lactose, sucrose, erlose, selaginose, maltosyl glucoside, or isomaltosyl glucoside was prepared.
(§2) To each of the above solutions was added two units/g substrate of a purified polypeptide specimen of α-isomaltosylglucosaccharide-forming enzyme from either Bacillus globisporus C11 obtained by the method in Experiment 1-3, Bacillus globisporus N75 obtained by the method in Experiment 2-3, or Arthrobacter globiformis A19 obtained by the method in Experiment 3-3, and the resulting each solution was adjusted to give a substrate concentration of 2% (w/v) and incubated at 30° C. and pH 6.0, except for using pH 8.4 for the enzyme from Arthrobacter globiformis A19, for 24 hours. In order to analyze the saccharides in the reaction mixture before and after the enzymatic reaction, silica gel thin-layer chromatography (hereinafter, abbreviated as “TLC”) was carried out. After two-times development using, as a developer, a mixture solution of n-butanol, pyridine, and water (=6:4:1), and, as a thin-layer plate, “KIESELGEL 60”, an aluminum plate (20×20 cm) for TLC commercialized by Merck & Co., Inc., Rahway, USA, the saccharides in the reaction mixture were examined whether the enzyme acted or not by the coloration of sugars by the sulfuric acid-methanol method.

[2] = tested on: α-isomaltosylglucosaccharide-forming enzyme from Bacillus globisporus C11; assay: as above; type: biochemical; set-up: key: −: it showed no change; +: it showed a slight reduction of the color spot of the substrate and the formation of other reaction product; ++: it showed a high reduction of the color spot of the substrate and the formationof other reaction product; +++: it showed a substantial disappearance of the substrate spot and the formation of other reaction product; details: two units/g substrate, substrate 2% (w/v), 30° C., pH 6.0, 24 hours
Method: as §1, §2

[3] = tested on: α-isomaltosylglucosaccharide-forming enzyme from Bacillus globisporus N75; assay: as above; type: biochemical; set-up: key: −: it showed no change; +: it showed a slight reduction of the color spot of the substrate and the formation of other reaction product; ++: it showed a high reduction of the color spot of the substrate and the formationof other reaction product; +++: it showed a substantial disappearance of the substrate spot and the formation of other reaction product; details: two units/g substrate, substrate 2% (w/v), 30° C., pH 6.0, 24 hours
Method: as §1, §2

[4] = tested on: polypeptide having α-isomaltosylglucosaccharide-forming enzyme activity, obtained in Experiment 1-3; assay: Reaction product from maltooligosaccharide (sugar composition by HPLC); type: biochemical, Bacillus globisporus C11; set-up: unit not given here; details: 1% (w/v) substrate, 35° C., pH 6.0, 8 hours; for Sugar composition of reaction mixture, substrate Maltopentaose: 0.1 unit/g-solid; for Sugar composition of reaction mixture, substrate Maltotetraose: 0.2 unit/g-solid; for Sugar composition of reaction mixture, substrate Maltotriose / Sugar composition of reaction mixture, substrate Mlatose: two units/g-solid
Method: To an aqueous solution containing one percent (w/v) of maltose, maltotriose, maltotetraose, or maltopentaose as a substrate was added the polypeptide having α-isomaltosylglucosaccgaride-forming enzyme activity, obtained in Experiment 1-3, in an amount of two units/g-solid for maltose and maltotriose, 0.2 unit/g-solid for maltotetraose, and 0.1 unit/g-solid for maltopentaose, followed by incubation at 35° C. and pH 6.0 for 8 hours. After stopping the enzymatic reaction by a 10-minutes incubation, sugar compositions in the reaction mixture were measured by HPLC using “YMC Pack ODS-AQ303”, a column commercialized by YMC Co., Ltd., Tokyo, Japan, at a column temperature of 40° C. and a flow rate of 0.5 ml/minutes of water, and using as a detector “RI-8012”, a differential refractometer commercialized by Tosoh Corporation, Tokyo, Japan.

Row | Molecule | Enzyme action, A19 enzyme [1] | Enzyme action, C11 enzyme [2] | Enzyme action, N75 enzyme [3] | Sugar composition of reaction mixture, substrate Maltopentaose [4] | Sugar composition of reaction mixture, substrate Maltotetraose [4] | Sugar composition of reaction mixture, substrate Maltotriose [4] | Sugar composition of reaction mixture, substrate Mlatose [4]
1 | O=C[C@H](O)[C@@H](O)[C@H](O[C@@H]1O[C@H](CO)[C@@H](O)[C@H](O)[C@H]1O)[C@H](O)CO [Cellobiose, cellobiose] | − | − | − |  |  |  | 
2 | OC[C@H]1O[C@@H](OC[C@H]2OC(O)[C@H](O)[C@@H](O)[C@@H]2O)[C@H](O)[C@@H](O)[C@@H]1O (stereo partly drawn) [Gentibiose, gentibiose] | − | − | − |  |  |  | 
3 | OC[C@H]1O[C@H](OC[C@H]2O[C@H](O[C@H]3[C@H](O)[C@@H](O)[C@@H](O[C@H]4[C@H](O)[C@@H](O)[C@@H](O)O[C@@H]4CO)O[C@@H]3CO)[C@H](O)[C@@H](O)[C@@H]2O)[C@H](O)[C@@H](O)[C@@H]1O [Glucosylmaltotriose, α-isomaltosylmaltose] |  |  |  | 0.0 | 6.8 | 31.5 | 2.4
4 | OC[C@H]1O[C@H](OC[C@H]2OC(O)[C@H](O)[C@@H](O)[C@@H]2O)[C@H](O)[C@@H](O)[C@@H]1O (stereo partly drawn) [Isomaltose, isomaltose] | − | − | − | 0.0 | 0.0 | 0.0 | 0.5
5 | OC[C@H]1O[C@H](OC[C@H]2O[C@H](OC[C@H]3OC(O)[C@H](O)[C@@H](O)[C@@H]3O)[C@H](O)[C@@H](O)[C@@H]2O)[C@H](O)[C@@H](O)[C@@H]1O (stereo partly drawn) [Isomaltotriose, isomaltotriose] | − | − | − |  |  |  | 
6 | OC[C@H]1O[C@H](O[C@H]2[C@H](O)[C@@H](O)[C@@H](OC[C@H]3OC(O)[C@H](O)[C@@H](O)[C@@H]3O)O[C@@H]2CO)[C@H](O)[C@@H](O)[C@@H]1O (stereo partly drawn) [Isopanose, isopanose] | ++ | ++ | ++ |  |  |  | 
7 | OC[C@H]1O[C@@H](O[C@H]2[C@H](O)[C@@H](O)C(O)O[C@@H]2CO)[C@H](O)[C@@H](O)[C@H]1O (stereo partly drawn) [Lactose, lactose] | − | − | − |  |  |  | 
8 | OC[C@@H](O)[C@@H](O[C@H]1O[C@H](CO)[C@@H](O)[C@H](O)[C@H]1O)[C@H](O)[C@@H](O)CO [Maltitol, maltitol] | − | − | − |  |  |  | 
9 | OC[C@H]1O[C@H](O[C@H]2O[C@H](CO)[C@@H](O[C@H]3O[C@H](CO)[C@@H](O)[C@H](O)[C@H]3O)[C@H](O)[C@H]2O)[C@H](O)[C@@H](O)[C@@H]1O [Maltosyl glucoside, maltosyl glucoside] | ++ | ++ | ++ |  |  |  | 
10 | OC[C@H]1O[C@H](O[C@H]2[C@H](O)[C@@H](O)[C@@H](O[C@H]3[C@H](O)[C@@H](O)[C@@H](O[C@H]4[C@H](O)[C@@H](O)C(O)O[C@@H]4CO)O[C@@H]3CO)O[C@@H]2CO)[C@H](O)[C@@H](O)[C@@H]1O (stereo partly drawn) [Maltotetraose, maltotetraose] | +++ | +++ | +++ | 19.2 | 35.1 | 1.8 | 0.0
11 | OC[C@H]1O[C@H](OC[C@H]2O[C@H](O[C@H]3[C@H](O)[C@@H](O)C(O)O[C@@H]3CO)[C@H](O)[C@@H](O)[C@@H]2O)[C@H](O)[C@@H](O)[C@@H]1O (stereo partly drawn) [Panose, panose] | − | − | − | 0.0 | 0.0 | 1.2 | 8.2
12 | OC[C@H]1O[C@H](O[C@H]2O[C@H](CO)[C@@H](O)[C@H](O)[C@H]2O[C@H]2O[C@H](CO)[C@@H](O)[C@H](O)[C@H]2O)[C@H](O)[C@@H](O)[C@@H]1O [Selaginose, selaginose] | − | − | − |  |  |  | 
13 | OC[C@H]1O[C@@](CO)(O[C@H]2O[C@H](CO)[C@@H](O)[C@H](O)[C@H]2O)[C@@H](O)[C@@H]1O [Sucrose, sucrose] | − | − | − |  |  |  | 
14 | OC[C@H]1O[C@H](O[C@H]2O[C@H](CO)[C@@H](O)[C@H](O)[C@H]2O)[C@H](O)[C@@H](O)[C@@H]1O [Trehalose, trehalose] | − | − | − |  |  |  | 
15 | OC[C@H]1O[C@H](OC[C@H]2O[C@H](O[C@H]3[C@H](O)[C@@H](O)[C@@H](O[C@H]4[C@H](O)[C@@H](O)[C@@H](O[C@H]5[C@H](O)[C@@H](O)C(O)O[C@@H]5CO)O[C@@H]4CO)O[C@@H]3CO)[C@H](O)[C@@H](O)[C@@H]2O)[C@H](O)[C@@H](O)[C@@H]1O (stereo partly drawn) [X, α-isomaltosylmaltotriose] |  |  |  | 11.4 | 30.0 | 2.1 | 0.0
16 | OC[C@H]1O[C@H](OC[C@H]2O[C@H](O[C@H]3[C@H](O)[C@@H](O)[C@@H](O[C@H]4[C@H](O)[C@@H](O)[C@@H](O[C@H]5[C@H](O)[C@@H](O)[C@@H](O[C@H]6[C@H](O)[C@@H](O)C(O)O[C@@H]6CO)O[C@@H]5CO)O[C@@H]4CO)O[C@@H]3CO)[C@H](O)[C@@H](O)[C@@H]2O)[C@H](O)[C@@H](O)[C@@H]1O (stereo partly drawn) [Y, α-isomaltosylmaltotetraose] |  |  |  | 26.8 | 1.4 | 0.0 | 0.0
17 | isomaltosyl glucoside | − | − | − |  |  |  | 
18 | maltoheptaose | +++ | +++ | +++ |  |  |  | 
19 | maltohexaose | +++ | +++ | +++ | 4.6 | 0.0 | 0.0 | 0.0
20 | maltopentaose | +++ | +++ | +++ | 34.4 | 3.5 | 0.0 | 0.0
21 | maltotriose | ++ | ++ | ++ | 1.9 | 22.7 | 45.3 | 0.8

Source: patent US7211422B2, “Polypeptide having α-isomaltosylglucosaccharide synthase activity” (Kabushiki Kaisha Hayashibara Seibutsu Kagaku Kenkyujo, priority 2001, dated 2007)
